Data from PubChem BioAssay AID248 (DTP/NCI, 2004).
Where “and” joins values, the source holds several entries; their conditions need not be identical. Equal values may be shown once. Toxic doses and inconclusive results are not listed. Rule as the data show it: active = T/C of 150% or more; inactive = T/C below 125%.

System: L1210 leukemia ip in BDF1 mice, survival T/C
Assay: NCI In Vivo Anticancer Drug Screen. Data for tumor model L1210 Leukemia (intraperitoneal) in B6D2F1 (BDF1) mice
Conditions: endpoint: mean survival time, higher = longer survival
Summary of the method: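 Value reflects the ratio of survival in compound-treated mice to survival in vehicle-treated controls, with both groups carrying the same transplanted tumor.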

[1] = dose: 100.0 mg/kg/injection, schedule: Q04DX002 (ip), vehicle: Klucel (hydroxypropylcellulose) (HPC)
[2] = dose: 200.0 mg/kg/injection, schedule: Q04DX002 (ip), vehicle: Klucel (hydroxypropylcellulose) (HPC)
[3] = dose: 400.0 mg/kg/injection, schedule: Q04DX002 (ip), vehicle: Klucel (hydroxypropylcellulose) (HPC)
[4] = dose: 100.0 mg/kg/injection, schedule: Q04DX003 (ip), vehicle: saline with Tween-80
[5] = dose: 200.0 mg/kg/injection, schedule: Q04DX003 (ip), vehicle: saline with Tween-80
[6] = dose: 400.0 mg/kg/injection, schedule: Q04DX003 (ip), vehicle: saline with Tween-80
[7] = dose: 100.0 mg/kg/injection, schedule: Q01DX001 (ip), vehicle: saline
[8] = dose: 200.0 mg/kg/injection, schedule: Q01DX001 (ip), vehicle: saline
[9] = dose: 400.0 mg/kg/injection, schedule: Q01DX001 (ip), vehicle: saline
[10] = dose: 100.0 mg/kg/injection, schedule: Q04DX003 (ip), vehicle: other
[11] = dose: 200.0 mg/kg/injection, schedule: Q04DX003 (ip), vehicle: other
[12] = dose: 50.0 mg/kg/injection, schedule: Q01DX009 (ip), vehicle: saline with Tween-80
[13] = dose: 100.0 mg/kg/injection, schedule: Q01DX009 (ip), vehicle: saline with Tween-80
[14] = dose: 200.0 mg/kg/injection, schedule: Q01DX009 (ip), vehicle: saline with Tween-80
[15] = dose: 400.0 mg/kg/injection, schedule: Q01DX009 (ip), vehicle: saline with Tween-80

Measured: T/C

CC(=O)Nc1ccc(O)c2ccccc12
inactive: [1] 92 % of control | [2] 89 % of control | [3] 99 % of control

O=[N+]([O-])c1cc(S(=O)(=O)C(F)F)ccc1Cl
inactive: dose: 25.0 mg/kg/injection, schedule: Q04DX003 (ip), vehicle: gum acacia 97 % of control | dose: 50.0 mg/kg/injection, schedule: Q01DX009 (ip), vehicle: gum acacia 93 % of control | dose: 50.0 mg/kg/injection, schedule: Q04DX003 (ip), vehicle: gum acacia 97 % of control | dose: 100.0 mg/kg/injection, schedule: Q01DX009 (ip), vehicle: gum acacia 88 % of control | dose: 100.0 mg/kg/injection, schedule: Q04DX003 (ip), vehicle: gum acacia 99 % of control and 102 % of control

O=C(O)c1ccccc1C(=O)c1cccc2c(Cl)cccc12
inactive: dose: 50.0 mg/kg/injection, schedule: Q01DX001 (ip), vehicle: Klucel (hydroxypropylcellulose) (HPC) 97 % of control | dose: 100.0 mg/kg/injection, schedule: Q01DX001 (ip), vehicle: Klucel (hydroxypropylcellulose) (HPC) 92 % of control | dose: 200.0 mg/kg/injection, schedule: Q01DX001 (ip), vehicle: Klucel (hydroxypropylcellulose) (HPC) 91 % of control

O=C(Nc1ccc(Br)cc1)Oc1ccccc1C(=O)Nc1ccccc1
inactive: dose: 100.0 mg/kg/injection, schedule: Q01DX009 (ip), vehicle: Klucel (hydroxypropylcellulose) (HPC) 98 % of control | dose: 200.0 mg/kg/injection, schedule: Q01DX009 (ip), vehicle: Klucel (hydroxypropylcellulose) (HPC) 98 % of control | dose: 400.0 mg/kg/injection, schedule: Q01DX009 (ip), vehicle: Klucel (hydroxypropylcellulose) (HPC) 88 % of control

O=C1CCC(N2C(=O)C3C4CCC(O4)C3C2=O)C(=O)N1 (stereo not given)
inactive: [1] 103 % of control | [4] 96 % of control | [2] 113 % of control | [5] 100 % of control | [3] 103 % of control | [6] 96 % of control

CC(=O)Nn1c(=O)c(=O)oc2ccccc21
inactive: dose: 75.0 mg/kg/injection, schedule: Q01DX001 (ip), vehicle: acetone 94 % of control | dose: 150.0 mg/kg/injection, schedule: Q01DX001 (ip), vehicle: acetone 93 % of control | dose: 300.0 mg/kg/injection, schedule: Q01DX001 (ip), vehicle: acetone 96 % of control

Nc1ccc(C(=O)O)c(F)c1
inactive: [1] 101 % of control | [2] 104 % of control | [3] 101 % of control

c1ccc(CN2CCC(N3CCCC3)CC2)cc1
inactive: dose: 50.0 mg/kg/injection, schedule: Q01DX009 (ip), vehicle: saline 101 % of control | dose: 100.0 mg/kg/injection, schedule: Q01DX009 (ip), vehicle: saline 95 % of control | dose: 100.0 mg/kg/injection, schedule: Q04DX003 (ip), vehicle: saline 109 % of control | dose: 200.0 mg/kg/injection, schedule: Q01DX009 (ip), vehicle: saline 94 % of control | dose: 200.0 mg/kg/injection, schedule: Q04DX003 (ip), vehicle: saline 101 % of control

O=C(N/N=C/c1ccccc1Cl)c1cccc2ccccc12
inactive: [7] 92 % of control | [8] 101 % of control | [9] 103 % of control

CC1CCCC(CN=Cc2cc(Cl)ccc2O)[N-]1.CC1CCCC(CN=Cc2cc(Cl)ccc2O)[N-]1.[Ni+2] (stereo not given)
inactive: [4] 96 % of control | [5] 90 % of control | [6] 91 % of control

O=CNNC(=O)c1cccc([N+](=O)[O-])c1
inactive: dose: 100.0 mg/kg/injection, schedule: Q01DX001 (ip), vehicle: other 95 % of control | [10] 97 % of control | dose: 200.0 mg/kg/injection, schedule: Q01DX001 (ip), vehicle: other 101 % of control | [11] 95 % of control | dose: 400.0 mg/kg/injection, schedule: Q01DX001 (ip), vehicle: other 92 % of control

Cc1ccc(C)c(C(=O)CCCCl)c1
inactive: [4] 98 % of control

O=S(NOCCCCONS(=O)c1ccccc1)c1ccccc1 (stereo not given)
inactive: dose: 25.0 mg/kg/injection, schedule: Q01DX001 (ip), vehicle: saline with Tween-80 100 % of control | dose: 25.0 mg/kg/injection, schedule: Q04DX003 (ip), vehicle: saline with Tween-80 93 % of control | dose: 50.0 mg/kg/injection, schedule: Q01DX001 (ip), vehicle: saline with Tween-80 95 % of control | [12] 94 % of control and 102 % of control | dose: 50.0 mg/kg/injection, schedule: Q04DX003 (ip), vehicle: saline with Tween-80 96 % of control | dose: 100.0 mg/kg/injection, schedule: Q01DX001 (ip), vehicle: saline with Tween-80 95 % of control and 90 % of control | [13] 95 % of control and 96 % of control | dose: 100.0 mg/kg/injection, schedule: Q04DX002 (ip), vehicle: saline with Tween-80 98 % of control and 89 % of control | [4] 89 % of control | dose: 200.0 mg/kg/injection, schedule: Q01DX001 (ip), vehicle: saline with Tween-80 90 % of control | [14] 96 % of control and 92 % of control | dose: 200.0 mg/kg/injection, schedule: Q04DX002 (ip), vehicle: saline with Tween-80 100 % of control and 91 % of control | [5] 94 % of control | [15] 90 % of control | dose: 400.0 mg/kg/injection, schedule: Q04DX002 (ip), vehicle: saline with Tween-80 102 % of control

O=C(Nc1cccc2ncccc12)c1ccc(C(=O)Nc2cccc3ncccc23)cc1
inactive: [7] 101 % of control | [8] 93 % of control | [9] 91 % of control

O=C(Nc1ccc(C2=NCCN2)cc1)c1cccc(C(=O)Nc2ccc(C3=NCCN3)cc2)n1
inactive: dose: 15.0 mg/kg/injection, schedule: Q01DX Z (ip), vehicle: methylcellulose (MC) 96 % of control | dose: 30.0 mg/kg/injection, schedule: Q01DX Z (ip), vehicle: methylcellulose (MC) 93 % of control | dose: 60.0 mg/kg/injection, schedule: Q01DX Z (ip), vehicle: methylcellulose (MC) 104 % of control and 111 % of control | dose: 240.0 mg/kg/injection, schedule: Q01DX Z (ip), vehicle: methylcellulose (MC) 120 % of control | dose: 480.0 mg/kg/injection, schedule: Q01DX Z (ip), vehicle: methylcellulose (MC) 95 % of control

N#Cc1nc2c3ccccc3c3ccccc3c2nc1C#N
inactive: dose: 75.0 mg/kg/injection, schedule: Q01DX009 (ip), vehicle: other 90 % of control | dose: 300.0 mg/kg/injection, schedule: Q01DX009 (ip), vehicle: other 104 % of control

COC1CC(N=[N+]=[N-])C(O)C(C)O1 (stereo not given)
inactive: [13] 109 % of control and 105 % of control | [4] 97 % of control and 96 % of control | [14] 107 % of control and 89 % of control | [5] 103 % of control and 97 % of control | [15] 104 % of control and 100 % of control | [6] 108 % of control and 103 % of control

COc1ccc(O)c(Br)c1
inactive: dose: 100.0 mg/kg/injection, schedule: Q01DX009 (ip), vehicle: other 97 % of control | [10] 94 % of control | dose: 200.0 mg/kg/injection, schedule: Q01DX009 (ip), vehicle: other 103 % of control | [11] 96 % of control | dose: 400.0 mg/kg/injection, schedule: Q04DX003 (ip), vehicle: other 92 % of control

COc1ccc(C(c2ccccc2)C(CO)CO)cc1 (stereo not given)
inactive: dose: 75.0 mg/kg/injection, schedule: Q04DX002 (ip), vehicle: Klucel (hydroxypropylcellulose) (HPC) 90 % of control | dose: 150.0 mg/kg/injection, schedule: Q04DX002 (ip), vehicle: Klucel (hydroxypropylcellulose) (HPC) 93 % of control | dose: 300.0 mg/kg/injection, schedule: Q04DX002 (ip), vehicle: Klucel (hydroxypropylcellulose) (HPC) 87 % of control

Cc1ccc(NC(=O)C2CCC(C)(C(=O)O)C2(C)C)cc1 (stereo not given)
inactive: [12] 104 % of control | [13] 101 % of control | [14] 93 % of control
